Source: patent publication US6514946B1, “Macrolide antibiotics and treatment and prophylaxis of pasteurellosis using the same” (Zaidan Hojin Biseibutsu Kagaku Kenkyu Kai, priority 1999, dated 2003)
In brackets after ≈: the same amount, converted by molar mass.

Assays:
M. bovirhinis = test: Bacteria separation test from nasal cavity swab; assay type: in vivo, cattle
[1] = system: Shigella dysenteriae JS11910; test: Minimum inhibition concentration (MIC), agar double dilution method; assay type: cell-based; details: Shigella dysenteriae JS11910; Mueller hinton agar
Procedure: (§1) Test 1; Minimum Inhibition Concentration (MIC)
(§2) MIC was measured, based on the standard method of Japan Society of Chemotherapy, on a BHI agar medium (Brain heart-infusion agar, made by Difco Laboratories Inc.(USA)) with respect to Pasteurella and on a Mueller hinton agar medium (Mueller hinton agar, made by Difco, Laboratories Inc.(USA)) with respect to the other test bacteria in both cases according to the double dilution method.

[2] = system: Micrococcus luteus PCI1001; test: as above; assay type: cell-based; details: Mueller hinton agar
Procedure: as §1, §2

[3] = system: Bacillus subtilis NRRL B-558; test: as above; assay type: cell-based; details: Bacillus subtilis NRRL B-558; Mueller hinton agar
Procedure: as §1, §2

[4] = system: Enterobacter aerogenes ATCC13048; test: as above; assay type: cell-based; details: Mueller hinton agar
Procedure: as §1, §2

Escherichia coli NIHJ = test: as above; assay type: cell-based; details: Mueller hinton agar
Procedure: as §1, §2

Serratia marcescens = test: as above; assay type: cell-based; details: Mueller hinton agar
Procedure: as §1, §2

[5] = system: Pasteurella haemolytica BBPO101 N791; test: as above; assay type: cell-based; details: Pasteurella haemolytica BBPO101 N791, strain from cattle; BHI agar
Procedure: as §1, §2

[6] = system: Klebsiella pneumoniae PCI602; test: as above; assay type: cell-based; details: Mueller hinton agar
Procedure: as §1, §2

[7] = system: Staphylococcus aureus 193; test: as above; assay type: cell-based; details: Mueller hinton agar
Procedure: as §1, §2

[8] = system: Salmonella enteritidis 1891; test: as above; assay type: cell-based; details: Mueller hinton agar
Procedure: as §1, §2

S. aureus FDA209P = test: as above; assay type: cell-based, Staphylococcus aureus; details: Mueller hinton agar
Procedure: as §1, §2

P. multocida = test: Bacteria separation test from nasal cavity swab; assay type: in vivo, cattle
[9] = system: bovine bacterial pneumonia (Mycoplasma, Ureaplasma and Pasteurella); test: Clinical test against bovine bacterial pneumonia; assay type: in vivo, cattle; parameters: Average clinical score: scale not given here
Excerpt: Test 5: Clinical Test Against Bovine Bacterial Pneumonia
In this test, each drug was subcutaneously administered to cattle suffering from bacterial pneumonia (infectious diseases with Mycoplasma, Ureaplasma and Pasteurella), respectively, and the clinical effect of P-MT was compared with those of tilmicosin and C-9.
Tests are made on 17 case of one to two-month-old Holstein cattle (weight 56 to 101 kg) suffering from bacterial pneumonia caused by single or mixed infection of Pasteurella, Mycoplasma, Ureaplasma and Haemophilus (6 animals for each of P-MT and C-9 and 5 animals for tilmicosin). The drug was subcutaneously administered to the animals once a day in an amount of 10 mg/kg.
Three calves showing a similar degree of symptoms at the start of the test were arranged in one group. Each subject of the same group was respectively tested with one of the above three compounds. Ailing calves were successively grouped when being available.
Clinical findings, based on the daily observation from the time of the administration through the 5th day of the trial, were scored on each item according to the criteria in the table below. The clinical efficacy of the compounds was judged on the 5th day.
As to judgment based on the clinical symptoms, cases which could be judged among each group were classified into remarkably effective (85 to 100), effective (70 to under 85), a little effective (50 to under 70) and infective (under 50) according to the following improvement rate by clinical scores, and after summing up, the following effective rate was calculated, the difference in the effective rate among the groups was determined using a statistical method, and thus effectivity was judged. [formula]

[10] = system: Past. multocida BOPO305 M-17; test: Minimum inhibition concentration (MIC), agar double dilution method; assay type: cell-based, Pasteurella multocida; details: Past. multocida BOPO305 M-17, strain from a sheep; BHI agar
Procedure: as §1, §2

[11] = system: Past. multocida BSPO302 No. 6; test: as above; assay type: cell-based, Pasteurella multocida; details: Past. multocida BSPO302 No. 6, strain from a pig; BHI agar
Procedure: as §1, §2

[12] = system: Past haemolytica BAPO103 S801; test: as above; assay type: cell-based, Pasteurella haemolytica; details: Past haemolytica BAPO103 S801, strain from poultry; BHI agar
Procedure: as §1, §2

[13] = system: Past haemolytica BBPO102 N811; test: as above; assay type: cell-based, Pasteurella haemolytica; details: Past haemolytica BBPO102 N811, strain from cattle; BHI agar
Procedure: as §1, §2

M. bovis = assay type: in vivo, cattle; details: nasal cavity swab, before administration (baseline)
P. haemolytica 63-39 = test: Sensitivity (MIC), agar plate dilution method; details: P. haemolytica 63-39; agar plate dilution, 10^6 CFU/ml
E. coli K-12 R-5 = test: Minimum inhibition concentration (MIC), agar double dilution method; assay type: cell-based, Escherichia coli; details: Mueller hinton agar
Procedure: as §1, §2

H. somnus = test: Bacteria separation test from nasal cavity swab; assay type: in vivo, cattle
P. haemolytica = test: Bacteria separation test from nasal cavity swab; assay type: in vivo, cattle
Ureaplasma = test: Bacteria separation test from nasal cavity swab; assay type: in vivo, cattle
[14] = system: S. aureus Smith (virulent strain); test: microbe, parasite or virus in culture; assay type: cell-based, Staphylococcus aureus; details: S. aureus Smith (virulent strain); Mueller hinton agar
Procedure: as §1, §2

[15] = system: P. haemolytica 63-39 intraperitoneally infected mice; test: Antiinfective test on infected mice
[16] = before administration (baseline)
[17] = probit method from surviving numbers after 7 days, subcutaneous

For `CC[C@H]1OC(=O)C[C@@H](O)[C@H](C)[C@@H](O[C@@H]2O[C@H](C)C(O)C(N(C)C)C2O)[C@@H](CC=O)C[C@@H](C)C(=O)/C=C/C(C)=C/[C@@H]1CN1CCCCC1` (some centres unmarked), the “Separation rate (%) at completion (number of animal)” value (“Separation rate (%) at completion” for short) (M. bovirhinis; at completion) was 33 (2/6) % (number of animal), the “Separation rate (%) before administration (number of animal)” value (M. bovirhinis; [16]) was 67 (4/6) % (number of animal) and the MIC [1] was 3.13 µg/mL (≈ 4.71 µM). For the same molecule, the MIC [2] was 0.10 µg/mL (≈ 0.15 µM), the MIC [3] was 0.39 µg/mL (≈ 0.587 µM) and the MIC [4] was 6.25 µg/mL (≈ 9.4 µM). The MIC (Escherichia coli NIHJ) was 0.78 µg/mL (≈ 1.17 µM), the MIC (Serratia marcescens) was 6.25 µg/mL (≈ 9.4 µM) and the MIC [5] was 0.78 µg/mL (≈ 1.17 µM). It also gave an MIC [6] of 0.78 µg/mL (≈ 1.17 µM), an MIC [7] of 0.20 µg/mL (≈ 0.301 µM) and an MIC [8] of 0.78 µg/mL (≈ 1.17 µM). The MIC (S. aureus FDA209P) was 0.20 µg/mL (≈ 0.301 µM), the “Separation rate (%) at completion” value (P. multocida; at completion) was 50 (3/6) % (number of animal) and the “Separation rate (%) before administration (number of animal)” value (P. multocida; [16]) was 100 (6/6) % (number of animal). The Average clinical score ([9]; 1 day after completion of administration, cattle, 10 mg/kg subcutaneous) was 3.3, the Average clinical score ([9]; 2 days after completion of administration) was 2.5 and the Average clinical score ([9]; 3 days after completion of administration) was 2.0. The Average clinical score ([9]; 4 days after completion of administration) was 1.8, the “Effective rate (%) in clinical effect” value ([9]; (remarkably effective + effective case number)/test case number × 100) was 50% and the “Average symptomatic improvement rate (%)” value ([9]; (score before − score after administration)/score before × 100) was 75.9%. For the same molecule, the Average clinical score ([9]; at administration (baseline), cattle, 10 mg/kg subcutaneous) was 7.5, the “A little effective (%) (case number)” value ([9]; improvement rate 50 to under 70) was 50 (3) % (case number) and the “Effective (%) (case number)” value ([9]; improvement rate 70 to under 85) was 33 (2) % (case number). The “Remarkably effective (%) (case number)” value ([9]; improvement rate 85 to 100) was 17 (1) % (case number), the “Ineffective (%) (case number)” value ([9]; improvement rate under 50) was 0 (0) % (case number) and the MIC [10] was 0.39 µg/mL (≈ 0.587 µM). For the same molecule, the MIC [11] was 0.39 µg/mL (≈ 0.587 µM), the MIC [12] was 0.78 µg/mL (≈ 1.17 µM) and the MIC [13] was 0.78 µg/mL (≈ 1.17 µM). For the same molecule, the “Separation rate (%) before administration (number of animal)” value (M. bovis) was 33 (2/6) % (number of animal), the MIC (P. haemolytica 63-39) was 1.56 µg/mL (≈ 2.35 µM) and the MIC (E. coli K-12 R-5) was greater than 100 µg/mL. For the same molecule, the “Separation rate (%) at completion” value (H. somnus; at completion) was 0 (0/6) % (number of animal), the “Separation rate (%) before administration (number of animal)” value (H. somnus; [16]) was 0 (0/6) % (number of animal) and the “Separation rate (%) at completion” value (P. haemolytica; at completion) was 17 (1/6) % (number of animal). For the same molecule, the “Separation rate (%) before administration (number of animal)” value (P. haemolytica; [16]) was 17 (1/6) % (number of animal), the “Separation rate (%) at completion” value (Ureaplasma; at completion) was 33 (2/6) % (number of animal) and the “Separation rate (%) before administration (number of animal)” value (Ureaplasma; [16]) was 100 (6/6) % (number of animal). For the same molecule, the MIC [14] was 0.39 µg/mL (≈ 0.587 µM), the “Surviving number after 7 days/test number” value ([15]; dose 1 mg/kg subcutaneous one hour after infection) was 0/10 and the “Surviving number after 7 days/test number” value ([15]; dose 5 mg/kg subcutaneous one hour after infection) was 1/10. For the same molecule, the “Surviving number after 7 days/test number” value ([15]; dose 10 mg/kg subcutaneous one hour after infection) was 3/10, the “Surviving number after 7 days/test number” value ([15]; dose 20 mg/kg subcutaneous one hour after infection) was 10/10 and the “Surviving number after 7 days/test number” value ([15]; dose 30 mg/kg subcutaneous one hour after infection) was 10/10. For the same molecule, the “ED50 (95% confidence limit)” value [15, 17] was 10.3 mg/kg (7.7-13.4) and the ED90 [15, 17] was 18.3 mg/kg.
